According to US20080253976A1, “Personal Care Compositions Comprising An Antimicrobial Blend of Essential Oils or Constituents Thereof” (priority 2007, published 2008):
Like-named read-outs stand apart in the source and are kept apart here.

How the values were obtained:
MMP (2, 3, 12) = assay: Inhibition of host inflammation factor MMP (2, 3, 12); type: biochemical; details: at 200 uM for compounds, 0.001% for oils/extracts
Excerpt: (§1) P. gingivalis is a gram-negative anaerobe implicated in periodontal disease in humans and companion animals. P. gingivalis infects the gingival sulcus, producing a number of virulence factors including bacterial enzymes such as gingipains, METase and Cystalysin. Gingipains act on several immune system molecules, including kinogens, complement factors, immunoglobins, resulting in fluid influx into the sulcus, neutrophil recruitment, and bleeding. The ultimate result is a host inflammatory response characterized by cyclooxygenase (COX) induction, metalloproteinase (MMP) expression, prostaglandin elevation and reactive oxygen elevations which result in tissue damage and bone resorption, eventually leading to tooth detachment. MMP's (including various subtypes, e.g., MMP 1, 2, 3, 8, 9, 12, 13), are host extracellular matrix proteases that contribute to tissue destruction and remodeling. COX enzymes catalyze the conversion of arachidonic acid into prostaglandins, which result in vasodilation, redness, puffiness and pain.
(§2) Where no data are reported is not an indication that the compound/active has no activity; rather that the compound was not tested for that activity.

METase = METase (Porphyromonas gingivalis, UniProt Q7MX71); assay: Inhibition of bacterial virulence factor METase; type: biochemical, P. gingivalis; details: read-out: METase % inhibition
Excerpt: as §1
(§3) Inhibition of the proteolytic action of gingipains on immuno-regulatory proteins should lead to a reduction in the inflammatory host-response and subsequent tissue damage. Other bacterial enzymes, for example, METase and Cystalysin, are involved in degrading sulfur-containing amino acids to produce volatile sulfur compounds (VSC's) such as hydrogen sulfide or methyl mercaptan that lead to bad breath or oral malodor. Inhibition of METase and Cystalysin is thus an important function for oral care agents as are inhibitory activities against key host pro-inflammatory factors including matrix metalloproteinases (MMP's), cyclooxygenases (COX) and prostaglandin (PGE2).
as §2

Gingipain = assay: Inhibition of bacterial virulence factor Gingipain; type: biochemical, P. gingivalis; details: at 200 uM for compounds, 0.001% for oils/extracts
Excerpt: as §1, §2

COX-2 = target: T1, COX-2 (Homo sapiens, UniProt P35354); assay: Inhibition of host inflammation factor COX-2; type: biochemical; details: read-out: COX-2 % inhibition
T1 sequence (P35354 18-604): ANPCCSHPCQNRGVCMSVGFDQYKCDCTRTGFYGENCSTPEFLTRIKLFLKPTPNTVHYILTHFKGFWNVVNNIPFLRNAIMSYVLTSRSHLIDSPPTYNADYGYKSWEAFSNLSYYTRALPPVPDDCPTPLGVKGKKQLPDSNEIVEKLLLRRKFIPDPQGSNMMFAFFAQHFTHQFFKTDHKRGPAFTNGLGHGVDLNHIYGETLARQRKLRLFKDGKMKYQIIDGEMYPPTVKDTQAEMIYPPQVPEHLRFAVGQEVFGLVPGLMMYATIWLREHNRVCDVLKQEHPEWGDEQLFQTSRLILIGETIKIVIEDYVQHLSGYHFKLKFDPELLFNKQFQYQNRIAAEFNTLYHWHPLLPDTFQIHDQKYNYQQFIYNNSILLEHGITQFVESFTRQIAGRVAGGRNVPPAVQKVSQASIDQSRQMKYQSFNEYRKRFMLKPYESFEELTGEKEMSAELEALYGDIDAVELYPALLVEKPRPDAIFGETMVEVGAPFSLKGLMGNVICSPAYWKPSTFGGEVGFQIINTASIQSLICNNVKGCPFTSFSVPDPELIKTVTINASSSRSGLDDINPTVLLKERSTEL
Excerpt: as §1, §2

[1] = tested on: oral anaerobic bacterial biofilm containing Fusobacterium nucleatum; assay: In vitro biofilm growth inhibition model (30 second exposure, MIC); type: cell-based; details: lowest concentration that completely inhibited biofilm growth following a 30 second exposure
Protocol: The method involves forming a bacterial biofilm in a plastic uncoated 12-well tissue culture plate. The culture material is removed from the wells and the biofilm is treated with a test solution or appropriate control usually for 30 seconds. Subsequently, the biofilm is washed twice with sterile saline and fresh medium is placed on the biofilm which is then incubated at 37° C. overnight. The next day, the culture in each well is suspended and the optical density determined to assess biofilm growth.

Cystalysin = assay: Inhibition of bacterial virulence factor Cystalysin; type: biochemical, P. gingivalis; details: at 200 uM for compounds, 0.001% for oils/extracts
Excerpt: as §1, §3, §2

PGE2 = assay: Inhibition of host inflammation factor PGE2; type: cell-based; details: read-out: PGE2 % inhibition
Excerpt: as §3, §2

[2] = tested on: Total Facultative Anaerobes (TFA); assay: Plaque Chip Assay (PCA), Total Facultative Anaerobes count; type: cell-based, oral bacteria from whole saliva of healthy human donors; details: vs. water
Protocol: (§4) In further studies, individual essential oil compounds and blends were evaluated for germ kill efficacy against oral anaerobes. For comparison, a cetyl pyridinium chloride solution (350 ppm) and a commercially available essential oil mouthrinse (Listerine® Cool Mint with ˜0.258% essential oil level) were tested.
(§5) Aqueous solutions (comprising 1% poloxamer 407 and 15% ethanol) were prepared with the essential oil load fixed at 0.15%. […] The test solutions were used neat in this experiment. The essential oil compounds and blends were tested using the Plaque Chip Assay (PCA) method, developed in the Procter & Gamble laboratories. The PCA method measures a combination of the following parameters: antibacterial efficacy (bacteria or germ kill), biofilm dispersion efficacy/chemical removal (chemical cleaning, e.g., detergency without germ kill), biofilm prevention and/or inhibition efficacy (prevention of biofilm growth) and active substantivity (cumulative efficacy).
(§6) The PCA method uses unmodified, whole saliva (obtained from multiple healthy human donors) to grow a biofilm containing relevant oral species on the surface of hydroxyapatite (HA) discs (the ‘chip’) mounted in the cap of plastic tubes (Nunc™ Cryovial). HA chips are subjected to five one-minute treatment and re-growth cycles, designed to mimic typical oral care product usage (dentifrice, rinse, gel) over a 2½ day period. Fresh saliva is replaced after each treatment, wherein the saliva used serves both as an inoculum of relevant oral bacteria, and as a nutrient source for the growth of the biofilm. Sixteen hours after the final treatment cycle, the biofilm remaining on the chip is removed, and the number of viable bacteria contained within it are measured by standard agar plate counting on ETSA (Enriched Trypticase Soy Agar) and ETSA-NV (Enriched Trypticase Soy Agar Supplemented with Nalidixic Acid and Vancomycin) media. The number of colony forming units per unit volume (cfu/ml) is measured for Total Facultative Anaerobes (TFA) and Gram Negative Anaerobes (GNA). Results are summarized in Table 3 below reported as Log Reduction in TFA and GNA colony forming units provided by test formulations vs. control, i.e., water or base aqueous solution (comprising 1% poloxamer 407 and 15% ethanol). Reductions in TFA or GNA bacterial counts vs. control are reasonably predictive of in vivo efficacy, in particular plaque removal efficacy and breath malodor reduction. […] Particularly for blends containing 3 or more components, the relative amounts of each component can be adjusted to provide the best germ kill efficacy along with the desired flavor profile.

[3] = tested on: Gram Negative Anaerobes (GNA); assay: Plaque Chip Assay (PCA), Gram Negative Anaerobes count; type: cell-based, oral bacteria from whole saliva of healthy human donors; details: vs. water
Protocol: as §4, §5, §6

COX-1 = COX-1 (Homo sapiens, UniProt P23219); assay: Inhibition of host inflammation factor COX-1; type: biochemical; details: at 200 uM for compounds, 0.001% for oils/extracts
[4] = essential oil at 0.15% solution, five one-minute treatments
[5] = at 200 uM for compounds, 0.001% for oils/extracts

Sequence of METase (Q7MX71 whole entry): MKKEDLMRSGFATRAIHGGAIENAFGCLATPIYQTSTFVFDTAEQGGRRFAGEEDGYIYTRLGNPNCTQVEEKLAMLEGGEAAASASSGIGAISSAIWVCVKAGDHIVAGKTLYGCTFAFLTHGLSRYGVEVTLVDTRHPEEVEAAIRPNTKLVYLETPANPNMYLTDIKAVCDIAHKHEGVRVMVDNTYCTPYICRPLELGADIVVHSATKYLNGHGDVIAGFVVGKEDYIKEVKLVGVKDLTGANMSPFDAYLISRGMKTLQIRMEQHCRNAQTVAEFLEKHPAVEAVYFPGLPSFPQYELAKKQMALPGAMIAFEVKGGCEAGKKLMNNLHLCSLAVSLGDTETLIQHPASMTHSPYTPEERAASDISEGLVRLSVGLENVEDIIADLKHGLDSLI
Sequence of COX-1 (P23219 24-599): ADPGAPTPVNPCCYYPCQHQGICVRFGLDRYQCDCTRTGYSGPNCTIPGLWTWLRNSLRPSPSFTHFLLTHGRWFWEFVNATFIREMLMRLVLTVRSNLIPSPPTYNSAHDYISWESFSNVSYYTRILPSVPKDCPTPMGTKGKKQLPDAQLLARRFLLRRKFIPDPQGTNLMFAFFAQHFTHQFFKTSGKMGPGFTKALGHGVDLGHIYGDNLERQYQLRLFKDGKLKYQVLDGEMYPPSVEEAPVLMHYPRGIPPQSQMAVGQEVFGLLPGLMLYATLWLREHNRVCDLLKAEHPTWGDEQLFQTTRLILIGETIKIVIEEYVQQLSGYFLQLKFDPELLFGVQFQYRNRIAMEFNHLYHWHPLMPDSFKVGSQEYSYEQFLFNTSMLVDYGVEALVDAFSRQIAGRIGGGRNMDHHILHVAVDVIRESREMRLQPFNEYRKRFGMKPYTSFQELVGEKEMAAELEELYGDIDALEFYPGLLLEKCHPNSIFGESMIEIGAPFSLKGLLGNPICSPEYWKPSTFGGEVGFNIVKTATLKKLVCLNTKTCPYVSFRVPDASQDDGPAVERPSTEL

SMILES	MMP (2, 3, 12) % inhibition (MMP (2, 3, 12))	inhibition at 200 µM (METase) [%]	Gingipain % inhibition (Gingipain)	inhibition at 200 µM (COX-2) [%]	Total Oil Level Inhibiting Biofilm Growth (MIC), single component [1] [%]	Cystalysin % inhibition (Cystalysin)	inhibition at 200 µM (PGE2) [%]	Log Reduction in cfu/ml vs Control, TFA [2, 4] [log cfu/ml]	Log Reduction in cfu/ml vs Control, GNA [3, 4] [log cfu/ml]	Log Reduction in cfu/ml vs Control, TFA ([2]; 350 ppm solution) [log cfu/ml]	Log Reduction in cfu/ml vs Control, GNA ([3]; 350 ppm solution) [log cfu/ml]	inhibition at 200 µM (PGE2; [5]) [%]	inhibition at 200 µM (COX-1) [%]	inhibition at 200 µM (COX-2; [5]) [%]
Cc1ccc(C(C)C)cc1O [Carvacrol]	+ (% inhibition <25% at 200 uM for compounds, 0.001% for oils/extracts)	< 25	+ (% inhibition <25% at 200 uM for compounds, 0.001% for oils/extracts)	> 25	0.1	+ (% inhibition <25% at 200 uM for compounds, 0.001% for oils/extracts)	> 75	0.08	0.42					
CCCCCCCCCCCCCCCC[n+]1ccccc1 [Cetylpyridinium Chloride (CPC), Cetylpyridinium Chloride, reference compound]										1.45	1.31			
CC(C)=CCCC(C)=CC=O [Citral]	+ (% inhibition <25% at 200 uM for compounds, 0.001% for oils/extracts)	< 25	+ (% inhibition <25% at 200 uM for compounds, 0.001% for oils/extracts)		0.2			0.33	0.72			> 50		
CC12CCC(CC1)C(C)(C)O2 [Eucalyptol]	+ (% inhibition <25% at 200 uM for compounds, 0.001% for oils/extracts)	< 25	+ (% inhibition <25% at 200 uM for compounds, 0.001% for oils/extracts)		0.1	+ (% inhibition <25% at 200 uM for compounds, 0.001% for oils/extracts)		−0.06	0.38			> 75		
C=CCc1ccc(O)c(OC)c1 [Eugenol]	+ (% inhibition <25% at 200 uM for compounds, 0.001% for oils/extracts)	< 25	+ (% inhibition <25% at 200 uM for compounds, 0.001% for oils/extracts)	> 25	0.2	+ (% inhibition <25% at 200 uM for compounds, 0.001% for oils/extracts)	> 75	0.09	0.70					
CC(C)=CCC/C(C)=C/CO [Geraniol]	+ (% inhibition <25% at 200 uM for compounds, 0.001% for oils/extracts)	< 25			0.1	+ (% inhibition <25% at 200 uM for compounds, 0.001% for oils/extracts)		0.47	0.60			> 25	> 50	> 25
Cc1ccc(C(C)C)c(O)c1 [Thymol, reference compound]					0.1									
